From US5159081A, “Intermediates of peripherally selective N-carbonyl-3,4,4-trisubstituted piperidine opioid antagonists” (Eli Lilly and Company, priority 1991, dated 1992)
Where a name gives a salt, the structure may show the parent alone. Read-outs that look alike come from different tables or passages of the source.

Experiments:
[1] = molecular target: T1, opioid receptor (Mus musculus, UniProt P42866); assay: in vivo; parameters: species or system CF-1 male mice; details: sc
T1 construct: Five CF-1 male mice (Charles River, Portage, MI); from tissue; host or cells: living CF-1 male mice (whole animal, endogenous receptor)
T1 sequence (P42866 whole entry): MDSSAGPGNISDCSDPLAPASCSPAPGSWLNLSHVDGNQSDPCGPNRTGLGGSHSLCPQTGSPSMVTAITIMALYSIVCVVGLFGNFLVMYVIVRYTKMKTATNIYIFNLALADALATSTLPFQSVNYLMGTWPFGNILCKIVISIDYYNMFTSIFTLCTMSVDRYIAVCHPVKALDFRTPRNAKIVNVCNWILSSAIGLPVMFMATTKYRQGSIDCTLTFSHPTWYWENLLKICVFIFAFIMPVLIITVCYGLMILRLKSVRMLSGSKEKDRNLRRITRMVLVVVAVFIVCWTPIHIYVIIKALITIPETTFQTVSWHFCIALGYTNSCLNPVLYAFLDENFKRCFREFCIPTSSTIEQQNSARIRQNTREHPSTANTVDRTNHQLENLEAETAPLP

[2] = system: peripheral opioid receptors; assay: mouse diarrhea test: precipitated diarrhea in morphine-maintained mice (peripheral opioid activity); format: in vivo
[3] = molecular target: T2, mu receptor (Rattus norvegicus, UniProt P33535); assay: Naloxone [3H] opioid receptor binding assay (mu receptor); parameters: species or system rat (male Sprague Dawley); details: 20 min; for Ki: rat whole brain minus cerebellum, pH 7.4, 37° C., read-out: Ki
T2 construct: The brain tissue, rat whole brain minus cerebellum for mu was homogenized; from tissue; host or cells: brain minus cerebellum of male Sprague Dawley rats, homogenate fraction
T2 sequence (P33535 whole entry): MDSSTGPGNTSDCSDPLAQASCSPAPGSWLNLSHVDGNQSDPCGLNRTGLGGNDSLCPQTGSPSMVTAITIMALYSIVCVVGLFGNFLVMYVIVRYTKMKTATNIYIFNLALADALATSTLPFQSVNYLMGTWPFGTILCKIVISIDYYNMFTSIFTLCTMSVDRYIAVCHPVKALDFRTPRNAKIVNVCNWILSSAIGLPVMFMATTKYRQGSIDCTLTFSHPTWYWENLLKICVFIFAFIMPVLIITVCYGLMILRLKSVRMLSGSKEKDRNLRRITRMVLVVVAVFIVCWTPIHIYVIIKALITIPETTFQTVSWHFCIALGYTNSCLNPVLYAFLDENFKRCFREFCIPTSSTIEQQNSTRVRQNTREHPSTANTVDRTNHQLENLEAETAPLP

[4] = pH 7.4, read-out: % displacement at 10 nM
[5] = pH 7.4, read-out: % displacement at 100 nM
[6] = mouse writhing test, dose of antagonist that reduced inhibition of writhing by 1.25 mg/kg morphine sulfate to 50%, s.c. 20 min before acetic acid, read-out: AD50 (the source's name)
[7] = AD50 mouse writhing / ED50 mouse diarrhea, higher = greater relative peripheral antagonism
[8] = mouse writhing test, […], s.c. 20 min before acetic acid, read-out: AD50 (the source's name)
[9] = pH 7.4, 100 nM test compound, [3H]naloxone 0.5 nM, […], read-out: % displacement at 100 nM

SMILES | ED50 ([1]; mouse, read-out: AD50) | Ratio (ratio of AD50 to ED50) ([2]; mouse, in vivo) | inhibition at 0.01 µM [3, 4] | inhibition at 0.1 µM [3, 5] | ED50 [1, 6] | Ratio (ratio of AD50 to ED50) [2, 7] | Ki ([3]; […], [3H]naloxone 0.5 nM) | ED50 [1, 8] | inhibition at 0.1 µM [3, 9] | inhibition at 0.01 µM ([3]; pH 7.4, 10 nM test compound, [3H]naloxone 0.5 nM, […], read-out: % displacement at 10 nM) | inhibition at 0.01 µM ([3]; pH 7.4, 10 nM test compound, [3H]naloxone 0.5 nM, mu receptor, read-out: % displacement at 10 nM) | inhibition at 0.1 µM ([3]; pH 7.4, 100 nM test compound, [3H]naloxone 0.5 nM, mu receptor, read-out: % displacement at 100 nM)
C[C@H]1CN(CCN(C(=O)CCCC(=O)O)c2ccccc2)CC[C@@]1(C)c1cccc(O)c1 (relative stereo) [Example 20, Trans-5-(phenyl-(2-(4-(3-hydroxyphenyl)-3,4-dimethyl-1-piperidinyl)ethyl)amino)-5-oxopentanoic acid monohydrate] | 2.1 mg/kg | 35 | 95% | 99% |  |  |  |  |  |  |  | 
C[C@H]1CN(CCN(C(=O)CCC(=O)O)C2CCCCC2)CC[C@@]1(C)c1cccc(O)c1 (relative stereo) [Example 22, 4-(Cyclohexyl-(2-(trans-4-(3-hydroxyphenyl)-3,4-dimethyl-1-piperidinyl)ethyl)amino)-4-oxobutanoic acid monohydrate] |  |  | 51% | 93% | 1.25 mg/kg | 63 | 3.59 nM |  |  |  |  | 
C[C@H]1CN(CCN(C(=O)CCCC(=O)O)C2CCCCC2)CC[C@@]1(C)c1cccc(O)c1 (relative stereo) [Example 23, 5-(Cyclohexyl-(2-(trans-4-(3-hydroxyphenyl)-3,4-dimethyl-1-piperidinyl)ethyl)amino)-5-oxopentanoic acid monohydrate] |  |  | 77% | 100% | > 1.25 mg/kg | > 5 | 4.38 nM |  |  |  |  | 
C[C@H]1CN(CCCN(C(=O)CCCC(=O)O)C2CCCCC2)CC[C@@]1(C)c1cccc(O)c1 (relative stereo) [Example 25, 5-(cyclohexyl-(3-(trans-4-(3-hydroxyphenyl)-3,4-dimethyl-1-piperidinyl)propyl)amino)-5-oxopentanoic acid] |  |  | 77% | 93% |  | 10 | 1.18 nM | 0.61 mg/kg |  |  |  | 
C[C@H]1CN(CCN(CC2CCCCC2)C(=O)CCC(=O)O)CC[C@@]1(C)c1cccc(O)c1 (relative stereo) [Example 26, 4-(cyclohexylmethyl-(2-(trans-4-(3-hydroxyphenyl)-3,4-dimethyl-1-piperidinyl)ethyl)amino)-4-oxobutanoic acid monohydrate] |  |  | 73% | 100% |  | 72 | 1.91 nM | 3.6 mg/kg |  |  |  | 
C[C@H]1CN(CCCN(CC2CCCCC2)C(=O)CCCC(=O)O)CC[C@@]1(C)c1cccc(O)c1 (relative stereo) [Example 27, Trans-5-(cyclohexylmethyl(3-(4-(3-hydroxyphenyl)-3,4-dimethyl-1-piperidinyl)propyl)amino)-5-oxopentanoic acid monohydrate] |  |  | 63% | 93% |  | 61 | 8 nM | 11 mg/kg |  |  |  | 
CC(C)OC(=O)CCC(=O)N(CCN1CC[C@@](C)(c2cccc(O)c2)[C@@H](C)C1)C1CCCCC1 (relative stereo) [Example 30, 4-(Cyclohexyl-(2-(trans-4-(3-hydroxyphenyl)-3,4-dimethyl-1-piperidinyl)ethyl)amino)-4-oxobutanoic acid 1-methyl-ethyl ester] |  |  | 79% | 96% |  | > 40 | 11 nM | 12.4 mg/kg |  |  |  | 
CCCOC(=O)CCC(=O)N(CCN1CC[C@@](C)(c2cccc(O)c2)[C@@H](C)C1)C1CCCCC1 (relative stereo) [Example 31, 4-(Cyclohexyl-(2-(trans-4-(3-hydroxyphenyl)-3,4-dimethyl-1-piperidinyl)ethyl)amino)-4-oxobutanoic acid propyl ester] |  |  | 82% |  |  | > 200 | 2.52 nM | > 40 mg/kg | 97% |  |  | 
CCOC(=O)CCCC(=O)N(CCCN1CC[C@@](C)(c2cccc(O)c2)[C@@H](C)C1)C1CCCCC1 (relative stereo) [Example 33, 5-(Cyclohexyl-(3-(trans-4-(3-hydroxyphenyl)-3,4-dimethyl-1-piperidinyl)propyl)amino)-5-oxopentanoic acid ethyl ester monohydrochloride] |  |  |  | 99% |  | 122 | 0.26 nM | 3.67 mg/kg |  | 83% |  | 
C[C@H]1CN(CCN(C(=O)CCC(N)=O)C2CCCCC2)CC[C@@]1(C)c1cccc(O)c1 (relative stereo) [Example 35, N-Cyclohexyl-N-(2-(trans-4-(3-hydroxyphenyl)-3,4-dimethyl-1-piperidinyl)ethyl)butanediamide monohydrochloride] |  |  | 80% | 99% | > 1.25 mg/kg | > 3 | 2.15 nM |  |  |  |  | 
C[C@H]1CN(CCCN(C(=O)CCCC(N)=O)C2CCCCC2)CC[C@@]1(C)c1cccc(O)c1 (relative stereo) [Example 37, N-(3-(trans-4-(3-hydroxyphenyl)-3,4-dimethyl-1-piperidinyl)propyl)-N-cyclohexylpentanediamide monohydrochloride monohydrate] |  |  | 88% | 100% |  | 256 | 0.61 nM | 12.8 mg/kg |  |  |  | 
CNC(=O)CNC(=O)CC(=O)N(CCN1CC[C@@](C)(c2cccc(O)c2)[C@@H](C)C1)C1CCCCC1 (relative stereo) [Example 38, N-cyclohexyl-N-(2-(trans-4-(3-hydroxyphenyl)-3,4-dimethyl-1-piperidinyl)ethyl)-N'-(2-(methylamino)-2-oxoethyl)propanediamide monohydrochloride] |  |  | 79% |  |  | 1605 | 2.98 nM | 28.9 mg/kg | 98% |  |  | 
CC(C)CC(=O)NCCCC(=O)N(CCN1CC[C@@](C)(c2cccc(O)c2)[C@@H](C)C1)C1CCCCC1 (relative stereo) [Example 40, hydrochloride] |  | 3 | 87% | 100% |  |  | 1.16 nM | 2.2 mg/kg |  |  |  | 
CCOC(=O)CCCC(=O)NC(CCN1CC[C@@](C)(c2cccc(O)c2)[C@@H](C)C1)CC(C)C (single isomer, unassigned) [Example 3A, 5-((1-(2-(trans-4-(3-hydroxyphenyl)-3,4-dimethyl-1-piperidinyl)ethyl)-3-methylbutyl)amino)-5-oxopentanoic acid ethyl ester monohydrochloride] |  |  | 100% | 100% |  | 89 | 0.3 nM | 14.2 mg/kg |  |  |  | 
CCOC(=O)CCCC(=O)NC(CCN1CC[C@@](C)(c2cccc(O)c2)[C@@H](C)C1)CC(C)C (stereo in doubt) [Example 3B, 5-((1-(2-(trans-4-(3-hydroxyphenyl)-3,4-dimethyl-1-piperidinyl)ethyl)-3-methylbutyl)amino)-5-oxopentanoic acid ethyl ester monohydrochloride] |  |  | 93% | 99% |  | 111 | 0.86 nM | 15.5 mg/kg |  |  |  | 
C[C@H]1CN(CCC(NC(=O)CCCC(=O)O)C2CCCCC2)CC[C@@]1(C)c1cccc(O)c1 (stereo in doubt) [Example 5, 5-((3-(trans-4-(3-hydroxyphenyl)-3,4-dimethyl-1-piperidinyl)-1-cyclohexylpropyl)amino)-5-oxo-pentanoic acid monohydrochloride monohydrate] |  |  | 100% | 100% |  | > 1666 | 0.3 nM | > 20 mg/kg |  |  |  | 
CC(=O)NC(CCN1CC[C@@](C)(c2cccc(O)c2)[C@@H](C)C1)c1ccccc1 (stereo in doubt) [Example 6, N-(3-(trans-4-(3-hydroxyphenyl)-3,4-dimethyl-1-piperidinyl)-1-phenylpropyl)acetamide] |  |  | 82% | 94% |  | 428 | 6.49 nM | 30 mg/kg |  |  |  | 
C[C@H]1CN(CCC(CC2CCCCC2)NC(=O)CCCC(=O)O)CC[C@@]1(C)c1cccc(O)c1 (stereo in doubt) [Example 7, 5-((1-(cyclohexylmethyl)-3-(trans-4-(3-hydroxyphenyl)-3,4-dimethyl-1-piperidinyl)propyl)amino)-5-oxopentanoic acid monohydrochloride monohydrate] |  |  | 99% | 100% |  | 19 | 0.63 nM | 8.62 mg/kg |  |  |  | 
CCOC(=O)CCCC(=O)N[C@@H](CC1CCCCC1)CN1CC[C@](C)(c2cccc(O)c2)[C@H](C)C1 [Example 51] |  |  | 73% | 97% |  |  |  | > 40 mg/kg |  |  |  | 
C[C@H]1CN(C[C@H](CC2CCCCC2)NC(=O)CCCC(=O)OCC(=O)N(C)C)CC[C@@]1(C)c1cccc(O)c1 [Example 64] |  |  | 81% | 94% |  |  | 1.51 nM | 13.5 mg/kg |  |  |  | 
CC(=O)OC(C)OC(=O)CCCC(=O)N[C@@H](CC1CCCCC1)CN1CC[C@@](C)(c2cccc(O)c2)[C@@H](C)C1 (stereo partly drawn) [Example 67] |  |  |  |  |  |  |  | > 40 mg/kg |  |  | 73% | 95%
